Here are results for 15 compounds from PMC3678123 (Bioorganic & medicinal chemistry letters, 2013).

The structures appear in SMILES notation. Entries after “also recorded” stand apart in the source; their conditions may differ.

In the first assay the target is recombinant human DAAO (Homo sapiens, UniProt P14920). Description: Inhibition of recombinant human DAAO. Type of assay: biochemical. Conditions: qualitative statement.
Chain of recombinant human DAAO (P14920 whole entry): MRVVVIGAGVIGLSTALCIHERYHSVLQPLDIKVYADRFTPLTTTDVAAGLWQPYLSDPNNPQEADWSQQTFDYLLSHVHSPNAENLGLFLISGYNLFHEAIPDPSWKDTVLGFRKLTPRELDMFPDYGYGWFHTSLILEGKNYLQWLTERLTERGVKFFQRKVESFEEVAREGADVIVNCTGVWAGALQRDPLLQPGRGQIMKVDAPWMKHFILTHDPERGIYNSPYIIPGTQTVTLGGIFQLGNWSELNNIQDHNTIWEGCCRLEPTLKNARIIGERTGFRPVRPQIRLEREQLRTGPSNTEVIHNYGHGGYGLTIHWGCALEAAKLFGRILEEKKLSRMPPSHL
As to `O=c1cc(COC2CCCCO2)occ1O` (stereo not drawn) [9k], the “DAAO inhibitory potency (in words)” value was “significantly less potent than kojic acid”.
For the compound `CCOCc1cc(=O)c(O)co1` [9b], the “DAAO inhibitory potency (in words)” value is recorded as “significantly less potent than kojic acid”.
For `COc1coc(CO)cc1=O` [6b], the “DAAO inhibitory potency (in words)” value is given as “complete loss of potency; also recorded: completely devoid of any inhibitory activity”.
As for `COCc1cc(=O)c(O)co1` [9a], the “DAAO inhibitory potency (in words)” value is listed as “significantly less potent than kojic acid”.
On the same count and under the same terms, for `O=c1ccn(CCc2ccccc2)cc1O` [compound 19, 3-hydroxy-1-phenethyl-4(1H)-pyridinone] the value was “no inhibitory activity”; for `O=c1cc(COc2ccccc2)occ1O` [9c], “potency comparable or superior to that of kojic acid”; for `O=c1cc(COCc2ccccc2)occ1O` [9j], “dramatic loss of potency”.
Consider `O=c1cc(CCc2ccccc2)occ1O` [compound 17, 5-hydroxy-2-phenethyl-4H-pyran-4-one], for which the “DAAO inhibitory potency (in words)” value was “slightly more potent than the ether counterpart 9c”.

The next assay has as its system DAAO.
Test: not given
The following applies: cited from earlier work.
As for `O=C(O)c1ccc[nH]1` [5a, pyrrole-2-carboxylic acid], the IC50 is below 10000 nM.
On to `O=C(O)c1cc[nH]n1` [5b, 1H-pyrazole-3-carboxylic acid], for which the IC50 is below 100000 nM.
On to `O=C(O)c1cc(CCc2ccccc2)c[nH]1` [5c], for which the IC50 is below 1000 nM.
As for `O=C(O)c1cc(CCc2ccccc2)[nH]n1` [5d], the IC50 is below 1000 nM.
On to `O=c1[nH]c2c(F)cc(F)cc2n1O` [compound 3, 4,6-Difluoro-1-hydroxy-1Hbenzo[d]imidazol-2(3H)-one], for which the IC50 is 80 nM.
Take `O=c1oc2ccccc2cc1O` [2b, 3-hydroxychromen-2-one]: the IC50 was 440 nM.
As for `Oc1noc2cc(Cl)ccc12` [compound 1, 6-chlorobenzo[d]isoxazol-3-ol], the IC50 is 188 nM.
